Assay results from publication PMC4770715, “LIM kinase inhibitors disrupt mitotic microtubule organization and impair tumor cell proliferation” (Oncotarget, 2015).

Key:
Assay in all cases: biochemical
Parameters in all cases: KINOMEscan active-site competition binding, percent of control (100 = no competition)
Conditions in all cases: competition binding, percent control
ALK = ALK (Homo sapiens, UniProt Q9UM73)
AMPK-alpha2 = target: T1, AMPK-alpha2 (Homo sapiens, UniProt P54646)
T1 construct: gene PRKAA2

CAMK1 = CAMK1 (Homo sapiens, UniProt Q14012)
CDC2L2 = target: T2, CDC2L2 (Homo sapiens, UniProt Q9UQ88)
T2 construct: gene CDK11A

CLK4 = CLK4 (Homo sapiens, UniProt Q9HAZ1)
CSNK1G3 = CSNK1G3 (Homo sapiens, UniProt Q9Y6M4)
FLT3 = FLT3 (Homo sapiens, UniProt P36888)
FLT3(D835H) = FLT3(D835H) (Homo sapiens, UniProt P36888, D835H)
[1] = target: T3, JAK1(JH1domain-catalytic) (Homo sapiens, UniProt P23458)
T3 construct: JH1domain-catalytic

[2] = target: T4, JAK2(JH1domain-catalytic) (Homo sapiens, UniProt O60674)
T4 construct: JH1domain-catalytic

NEK9 = NEK9 (Homo sapiens, UniProt Q8TD19)
PAK3 = PAK3 (Homo sapiens, UniProt O75914)
PIP5K1A = PIP5K1A (Homo sapiens, UniProt Q99755)
PRKD3 = PRKD3 (Homo sapiens, UniProt O94806)
PYK2 = target: T5, PYK2 (Homo sapiens, UniProt Q14289)
T5 construct: gene PTK2B

RIPK1 = RIPK1 (Homo sapiens, UniProt Q13546)
[3] = target: T6, RPS6KA4(Kin.Dom.2-C-terminal) (Homo sapiens, UniProt O75676)
T6 construct: Kin.Dom.2-C-terminal

[4] = target: T7, RSK2(Kin.Dom.1-N-terminal) (Homo sapiens, UniProt P51812)
T7 construct: gene RPS6KA3; Kin.Dom.1-N-terminal

[5] = target: T8, RSK3(Kin.Dom.2-C-terminal) (Homo sapiens, UniProt Q15349)
T8 construct: gene RPS6KA2; Kin.Dom.2-C-terminal

SIK = target: T9, SIK (Homo sapiens, UniProt P57059)
T9 construct: gene SIK1

SRPK2 = SRPK2 (Homo sapiens, UniProt P78362)
TNIK = TNIK (Homo sapiens, UniProt Q9UKE5)

T1 sequence (P54646 whole entry): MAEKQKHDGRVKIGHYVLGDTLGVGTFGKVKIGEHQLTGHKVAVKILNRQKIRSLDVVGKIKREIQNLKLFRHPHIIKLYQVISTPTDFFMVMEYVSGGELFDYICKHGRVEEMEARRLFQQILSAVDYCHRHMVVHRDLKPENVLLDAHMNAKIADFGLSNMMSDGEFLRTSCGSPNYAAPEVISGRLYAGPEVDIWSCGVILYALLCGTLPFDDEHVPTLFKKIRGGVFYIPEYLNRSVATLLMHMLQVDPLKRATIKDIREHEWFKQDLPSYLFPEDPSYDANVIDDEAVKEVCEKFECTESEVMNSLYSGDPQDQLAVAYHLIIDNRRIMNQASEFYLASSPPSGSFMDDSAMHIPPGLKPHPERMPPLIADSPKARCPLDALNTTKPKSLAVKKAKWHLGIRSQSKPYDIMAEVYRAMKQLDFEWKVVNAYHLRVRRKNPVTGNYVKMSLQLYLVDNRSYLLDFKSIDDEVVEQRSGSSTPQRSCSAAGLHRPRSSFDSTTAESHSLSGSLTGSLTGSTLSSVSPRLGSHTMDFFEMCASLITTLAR
T6 sequence (O75676 whole entry): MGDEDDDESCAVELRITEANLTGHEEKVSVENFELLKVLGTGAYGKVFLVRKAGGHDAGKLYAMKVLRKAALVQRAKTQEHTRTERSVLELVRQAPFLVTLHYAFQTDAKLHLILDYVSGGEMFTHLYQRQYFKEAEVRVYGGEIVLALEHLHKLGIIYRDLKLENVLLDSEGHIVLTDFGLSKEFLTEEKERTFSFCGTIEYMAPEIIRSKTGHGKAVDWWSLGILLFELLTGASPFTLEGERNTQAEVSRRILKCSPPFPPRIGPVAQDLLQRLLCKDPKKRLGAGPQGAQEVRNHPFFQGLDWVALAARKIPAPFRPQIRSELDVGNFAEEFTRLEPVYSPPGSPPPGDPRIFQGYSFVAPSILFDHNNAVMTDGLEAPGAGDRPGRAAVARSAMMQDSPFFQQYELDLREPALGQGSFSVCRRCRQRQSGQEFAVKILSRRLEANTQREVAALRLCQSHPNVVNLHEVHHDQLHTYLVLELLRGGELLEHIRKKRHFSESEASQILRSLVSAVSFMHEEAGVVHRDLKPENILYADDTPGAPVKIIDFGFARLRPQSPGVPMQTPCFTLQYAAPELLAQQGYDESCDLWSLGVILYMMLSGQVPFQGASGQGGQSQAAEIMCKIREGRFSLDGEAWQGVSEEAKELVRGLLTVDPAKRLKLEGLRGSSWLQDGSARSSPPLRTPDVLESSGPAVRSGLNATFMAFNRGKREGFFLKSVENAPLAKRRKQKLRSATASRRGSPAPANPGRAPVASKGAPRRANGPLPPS
Chain of PIP5K1A (Q99755 whole entry): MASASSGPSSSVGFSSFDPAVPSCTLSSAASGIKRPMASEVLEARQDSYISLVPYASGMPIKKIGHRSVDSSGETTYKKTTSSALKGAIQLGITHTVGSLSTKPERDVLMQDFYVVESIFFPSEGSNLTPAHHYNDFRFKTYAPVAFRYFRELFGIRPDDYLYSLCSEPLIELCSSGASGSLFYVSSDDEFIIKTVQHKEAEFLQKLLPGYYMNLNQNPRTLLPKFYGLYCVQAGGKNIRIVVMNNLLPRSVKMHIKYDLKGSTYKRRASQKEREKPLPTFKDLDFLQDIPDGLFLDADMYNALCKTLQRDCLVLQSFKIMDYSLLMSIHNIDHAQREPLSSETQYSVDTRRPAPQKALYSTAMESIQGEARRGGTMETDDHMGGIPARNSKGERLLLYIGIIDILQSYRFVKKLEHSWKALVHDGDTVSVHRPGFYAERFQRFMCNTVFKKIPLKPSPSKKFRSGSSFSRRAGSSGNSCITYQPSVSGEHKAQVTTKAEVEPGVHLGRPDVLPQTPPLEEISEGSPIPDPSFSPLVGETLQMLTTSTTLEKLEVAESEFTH
Chain of ALK (Q9UM73 whole entry): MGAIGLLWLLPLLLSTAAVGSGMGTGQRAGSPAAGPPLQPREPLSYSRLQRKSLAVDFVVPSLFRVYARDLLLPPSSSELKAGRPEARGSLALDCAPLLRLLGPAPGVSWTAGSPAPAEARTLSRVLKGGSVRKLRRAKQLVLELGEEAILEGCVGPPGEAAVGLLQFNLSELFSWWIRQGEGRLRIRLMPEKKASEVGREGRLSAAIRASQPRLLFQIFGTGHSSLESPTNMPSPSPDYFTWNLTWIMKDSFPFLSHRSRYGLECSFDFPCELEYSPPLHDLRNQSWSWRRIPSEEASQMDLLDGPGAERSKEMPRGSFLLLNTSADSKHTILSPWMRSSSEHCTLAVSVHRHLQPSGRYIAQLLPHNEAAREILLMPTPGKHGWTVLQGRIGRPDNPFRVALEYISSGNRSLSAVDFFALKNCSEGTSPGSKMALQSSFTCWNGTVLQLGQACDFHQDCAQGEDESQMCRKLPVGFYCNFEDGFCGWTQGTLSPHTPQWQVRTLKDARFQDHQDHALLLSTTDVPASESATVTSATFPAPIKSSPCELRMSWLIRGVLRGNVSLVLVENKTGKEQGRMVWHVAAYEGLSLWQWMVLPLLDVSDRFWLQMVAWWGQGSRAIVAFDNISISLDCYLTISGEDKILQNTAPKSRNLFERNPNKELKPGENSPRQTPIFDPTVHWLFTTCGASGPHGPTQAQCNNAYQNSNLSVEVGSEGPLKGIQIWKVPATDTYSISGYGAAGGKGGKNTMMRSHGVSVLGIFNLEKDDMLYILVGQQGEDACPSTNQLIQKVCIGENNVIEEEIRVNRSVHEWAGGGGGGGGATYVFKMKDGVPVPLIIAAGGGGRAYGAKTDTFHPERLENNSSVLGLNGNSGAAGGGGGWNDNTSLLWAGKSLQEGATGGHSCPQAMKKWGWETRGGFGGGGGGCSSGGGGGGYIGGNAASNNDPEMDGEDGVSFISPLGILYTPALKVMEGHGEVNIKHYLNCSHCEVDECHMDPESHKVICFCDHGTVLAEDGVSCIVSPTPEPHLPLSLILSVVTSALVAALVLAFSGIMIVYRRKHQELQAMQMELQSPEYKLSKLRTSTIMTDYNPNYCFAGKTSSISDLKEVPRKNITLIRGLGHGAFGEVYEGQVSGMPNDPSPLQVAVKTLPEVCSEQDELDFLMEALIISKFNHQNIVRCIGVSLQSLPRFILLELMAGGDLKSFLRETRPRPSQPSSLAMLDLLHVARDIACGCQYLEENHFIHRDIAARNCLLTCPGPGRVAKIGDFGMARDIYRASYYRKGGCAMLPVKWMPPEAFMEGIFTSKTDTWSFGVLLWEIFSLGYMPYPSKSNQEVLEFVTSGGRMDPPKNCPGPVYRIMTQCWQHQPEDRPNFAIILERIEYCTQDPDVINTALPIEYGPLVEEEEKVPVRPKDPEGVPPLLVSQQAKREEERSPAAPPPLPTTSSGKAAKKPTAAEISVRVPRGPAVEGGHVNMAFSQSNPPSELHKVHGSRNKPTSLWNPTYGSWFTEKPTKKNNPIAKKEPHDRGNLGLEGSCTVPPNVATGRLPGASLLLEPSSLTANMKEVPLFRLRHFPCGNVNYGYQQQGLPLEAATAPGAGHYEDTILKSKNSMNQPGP
T9 sequence (P57059 whole entry): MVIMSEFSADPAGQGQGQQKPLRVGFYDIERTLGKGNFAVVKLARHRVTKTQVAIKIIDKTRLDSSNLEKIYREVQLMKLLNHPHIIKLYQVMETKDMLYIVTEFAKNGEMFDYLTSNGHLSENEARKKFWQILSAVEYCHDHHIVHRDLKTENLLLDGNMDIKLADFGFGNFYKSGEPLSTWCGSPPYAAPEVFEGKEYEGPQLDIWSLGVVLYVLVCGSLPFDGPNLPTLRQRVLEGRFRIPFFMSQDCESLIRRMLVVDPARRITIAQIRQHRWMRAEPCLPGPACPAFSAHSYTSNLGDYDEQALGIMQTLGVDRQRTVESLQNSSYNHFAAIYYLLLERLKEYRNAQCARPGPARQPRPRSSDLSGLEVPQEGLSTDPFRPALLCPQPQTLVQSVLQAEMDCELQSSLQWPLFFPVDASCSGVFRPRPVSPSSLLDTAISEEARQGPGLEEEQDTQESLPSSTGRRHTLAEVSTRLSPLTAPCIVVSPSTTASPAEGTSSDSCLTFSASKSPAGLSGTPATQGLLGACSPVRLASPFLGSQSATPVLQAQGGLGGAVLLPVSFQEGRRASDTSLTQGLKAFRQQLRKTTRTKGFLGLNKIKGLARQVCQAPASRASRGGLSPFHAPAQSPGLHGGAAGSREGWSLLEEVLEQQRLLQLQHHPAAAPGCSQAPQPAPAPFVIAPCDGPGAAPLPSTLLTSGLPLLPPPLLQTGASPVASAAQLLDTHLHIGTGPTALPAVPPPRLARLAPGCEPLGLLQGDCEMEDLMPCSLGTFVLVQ
Chain of CAMK1 (Q14012 whole entry): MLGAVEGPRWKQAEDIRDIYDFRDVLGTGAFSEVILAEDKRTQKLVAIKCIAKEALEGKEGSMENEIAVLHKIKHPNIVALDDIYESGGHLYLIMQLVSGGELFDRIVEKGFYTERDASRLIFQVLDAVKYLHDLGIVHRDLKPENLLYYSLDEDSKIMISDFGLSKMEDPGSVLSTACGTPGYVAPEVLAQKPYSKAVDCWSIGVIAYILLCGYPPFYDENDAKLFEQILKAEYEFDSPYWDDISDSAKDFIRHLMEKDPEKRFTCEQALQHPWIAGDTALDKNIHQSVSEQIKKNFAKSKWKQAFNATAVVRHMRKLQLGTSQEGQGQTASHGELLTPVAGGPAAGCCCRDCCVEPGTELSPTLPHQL

| SMILES | remaining binding at 10 µM (ALK) [%] | remaining binding at 10 µM (AMPK-alpha2) [%] | remaining binding at 10 µM (CAMK1) [%] | remaining binding at 10 µM (CDC2L2) [%] | remaining binding at 10 µM (CLK4) [%] | remaining binding at 10 µM (CSNK1G3) [%] | remaining binding at 10 µM (FLT3) [%] | remaining binding at 10 µM (FLT3(D835H)) [%] | remaining binding at 10 µM [1] [%] | remaining binding at 10 µM [2] [%] | remaining binding at 10 µM (NEK9) [%] | remaining binding at 10 µM (PAK3) [%] | remaining binding at 10 µM (PIP5K1A) [%] | remaining binding at 10 µM (PRKD3) [%] | remaining binding at 10 µM (PYK2) [%] | remaining binding at 10 µM (RIPK1) [%] | remaining binding at 10 µM [3] [%] | remaining binding at 10 µM [4] [%] | remaining binding at 10 µM [5] [%] | remaining binding at 10 µM (SIK) [%] | further results |
| --- | --- | --- | --- | --- | --- | --- | --- | --- | --- | --- | --- | --- | --- | --- | --- | --- | --- | --- | --- | --- | --- |
| COc1ccc(-c2cnccc2-c2cnc(NC(=O)C(C)C)s2)c(C(F)(F)F)c1 [CRT0105446, N-{5-[3-(4-Methoxy-2-trifluoromethyl-phenyl)-pyridin-4-yl]-hiazol-2-yl}-isobutyramide] | 89 | 3.9 | 62 | 59 | 100 | 67 | 41 | 15 | 89 | 100 | 92 | 4.6 | 100 | 98 | 100 | 90 | 57 | 37 | 93 | 84 | remaining binding at 10 µM (SRPK2): 93%; remaining binding at 10 µM (TNIK): 89% |
| Cc1ccc(-c2cnccc2-c2cnc(Nc3ccc(O)cc3)s2)c(Cl)c1 [CRT0105950, 4-{5-[3-(2-Chloro-4-methyl-phenyl)-pyridin-4-yl]-thiazol-2-ylamino}-phenol] | 20 | 2 | 9.4 | 89 | 1.6 | 43 | 0.55 | 0.95 | 53 | 19 | 96 | 4.1 | 82 | 11 | 2.2 | 17 | 72 | 0.1 | 88 | 6.4 | remaining binding at 10 µM (SRPK2): 83%; remaining binding at 10 µM (TNIK): 10% |
